The target of this experiment is T1, human CCR10 (Homo sapiens, UniProt P46092).
T1 construct: expressed in transfected cells; host or cells: KJMGER8 cells (Namalwa cell-derived line), beta-estradiol-induced; hCCR10G16 cells
T1 sequence (P46092 1-362): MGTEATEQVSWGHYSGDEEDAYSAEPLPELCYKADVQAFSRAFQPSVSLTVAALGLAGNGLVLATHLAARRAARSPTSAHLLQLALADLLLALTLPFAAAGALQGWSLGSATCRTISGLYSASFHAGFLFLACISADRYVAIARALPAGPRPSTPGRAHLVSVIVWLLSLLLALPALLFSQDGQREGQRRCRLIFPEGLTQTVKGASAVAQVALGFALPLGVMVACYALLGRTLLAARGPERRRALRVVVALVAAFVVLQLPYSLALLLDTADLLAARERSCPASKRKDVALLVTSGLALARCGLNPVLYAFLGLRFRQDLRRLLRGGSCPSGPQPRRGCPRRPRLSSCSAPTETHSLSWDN
The experiment is described as follows: CCR10 antagonistic effect: calcium assay of human CCR10 (CTACK-induced increase of intracellular calcium in hCCR10G16 cells). It counts as cell-based. As to conditions: at a concentration of not more than 1000 nmol/L; human CCR10-expressing hCCR10G16 cells, 300 nmol/L CTACK added; read-out: inhibition of increase in the calcium ion concentration. As to the method: [Experimental Example 1] CCR10 Antagonistic Effect
(1) Preparation of Human CCR10-Inducible Expression Plasmid
A CCR10-inducible expression plasmid was prepared according to a known method [Analytical Biochemistry, 2006, vol. 400, page 163]. A DNA encoding human CCR10 was obtained by PCR. Using human chromosome DNA (100 ng; manufactured by Clontech) as a template, synthetic DNA having the sequences depicted in SEQ ID NOs: 1 and 2 as a human CCR10 cDNA specific primer, and Pyrobest DNA Polymerase (manufactured by TAKARA SHUZO CO. LTD.) as an enzyme, a DNA encoding human CCR10 was obtained by PCR. As a buffer for PCR, the buffer attached to the enzyme to be used, which was diluted 10-fold with deionized water, was used. Using Thermal Cycler DNA Engine (manufactured by MJ Research), PCR was performed by 35 cycles of reactions composed of an incubation at 94° C. for 30 sec, at an anneal temperature of 58° C. for 30 sec, and at 72° C. for 1 min after treating at 90° C. for 2 min.
The amplified PCR fragment was cleaved with HindIII and NotI, then a human CCR10 DNA fragment was recovered by the agarose gel electrophoresis method. The fragment was incorporated between the corresponding restriction enzyme sites (HindIII-NotI) of an inducible expression vector to construct a human CCR10-inducible expression plasmid.
Using a primer specific to the sequence of plasmid (synthetic DNA having the sequences shown in SEQ ID NOs: 3 and 4), the sequence of human CCR10 DNA region was determined. For the determination of the base sequence, DNA Sequencer 377 (manufactured by Perkin Elmer. Co.) and a reaction kit (ABI Prism (registered trade mark) BigDye (registered trade mark) Terminator Cycle Sequencing Ready Reaction kit: manufactured by Applied Biosystems) were used. The sequence of human CCR10 DNA was identical with the sequence (NM 016602) registered in GenBank.
(2) Preparation of Human CCR10 Expressing Cell for Calcium Assay
Cells for detecting signals from human CCR10 in calcium assay were prepared. According to a known method [Analytical.Biochemistry (Analy Biochem), 2006, vol. 400, page 163], human CCR10-inducible expressing cells whose host cell is KJMGER8 cell (Namalwa cell-derived cell line) were prepared. Human CCR10-inducible expression plasmid produced above and Gα16 expression plasmid were co-transfected into the KJMGER8 cells by the electroporation method [Cytotechnology, 1990, vol. 3, page 133], whereby the signals from human CCR10 could be detected by calcium assay (hereinafter to be referred to as hCCR10G16 cell). A Ga16 expression plasmid was produced by incorporating human Ga16 DNA into expression vector pAMoh (WO 03/087366). Expression of human CCR10 was induced by cultivating hCCR10G16 cells in the presence of 10 nmol/L β-estradiol (manufactured by Sigma Ltd.) for 24 hr.
(3) Calcium Assay of Human CCR10
Cells expressing human CCR10 induced by the above-mentioned method were suspended in RPMI1640 medium (manufactured by Invitrogen), and adjusted to a cell density of 2×10^6 cells/mL. The cells were blended with an equivalent volume of a loading buffer prepared according to the attached protocol of Fluo-3 calcium assay kit (manufactured by Molecular Devices Corporation), and incubated at 37° C. for several dozen minutes. This mixture was dispensed to a 384 well clear-bottom plate (manufactured by Corning Incorporated) at 40 μL/well. To this plate was added a solution of the test compound in dimethyl sulfoxide (DMSO), which was diluted 37-fold with RPMI1640 medium, at 5 μL/well, and the mixture was incubated at 37° C. for 30 min. 300 nmol/L human recombinant CTACK (manufactured by R&D Systems, Inc.) diluted with RPMI1640 medium containing 1 w/v % bovine serum albumin (manufactured by Sigma Ltd.) was added at 5 μL/well and, variation of intracellular calcium ion concentration for about 5 min after the addition was measured by a screening apparatus (FDSS; manufactured by Hamamatsu Photonics K.K.). […]

The structures appear in SMILES notation. Where only a bound is given, the exact number is not on record here.

Turning to `Cc1cccc(Nc2c(C(=O)N3CCC(c4ccc(F)cc4)CC3)cnc(S(N)(=O)=O)c2Cl)c1` [Compound 26, 3-chloro-5-[4-(4-fluorophenyl)piperidine-1-carbonyl]-4-(m-tolylamino)pyridine-2-sulfonamide], the inhibition at up to 1 µM is no less than 50%. Consider `NS(=O)(=O)c1ncc(C(=O)N2CCC(c3ccc(F)cc3)CC2)c(Nc2ccc(F)cc2F)c1Cl` [Compound 27, 3-chloro-4-(2,4-difluorophenylamino)-5-[4-(4-fluorophenyl)piperidine-1-carbonyl]pyridine-2-sulfonamide], for which the inhibition at up to 1 µM is no less than 50%. The result for `NS(=O)(=O)c1ncc(C(=O)N2CCC(c3ccc(F)cc3)CC2)c(Nc2ccc(Cl)cc2F)c1Cl` [Compound 28, 3-chloro-4-(4-chloro-2-fluorophenylamino)-5-[4-(4-fluorophenyl)piperidine-1-carbonyl]pyridine-2-sulfonamide] reads no less than 50%. `COc1ccc(Nc2c(C(=O)N3CCC(c4ccc(F)cc4)CC3)cnc(S(N)(=O)=O)c2Cl)cc1` [Compound 29, 3-chloro-5-[4-(4-fluorophenyl)piperidine-1-carbonyl]-4-(4-methoxyphenylamino)pyridine-2-sulfonamide]: the inhibition at up to 1 µM is no less than 50%. For `COc1ccc(Nc2c(C(=O)N3CCC(c4ccc(F)cc4)CC3)cnc(S(N)(=O)=O)c2Cl)c(F)c1` [Compound 30, 3-chloro-4-(2-fluoro-4-methoxyphenylamino)-5-[4-(4-fluorophenyl)piperidine-1-carbonyl]pyridine-2-sulfonamide], the inhibition at up to 1 µM is no less than 50%.

`Cc1cc(Nc2c(C(=O)N3CCC(c4ccc(F)cc4)CC3)cnc(S(N)(=O)=O)c2Cl)ccc1F` [Compound 31, 3-chloro-4-(4-fluoro-3-methylphenylamino)-5-[4-(4-fluorophenyl)piperidine-1-carbonyl]pyridine-2-sulfonamide]: the inhibition at up to 1 µM is no less than 50%. The result for `COc1ccc(Nc2c(C(=O)N3CCC(c4ccc(F)cc4)CC3)cnc(S(N)(=O)=O)c2Cl)cc1F` [Compound 32, 3-chloro-4-(3-fluoro-4-methoxyphenylamino)-5-[4-(4-fluorophenyl)piperidine-1-carbonyl]pyridine-2-sulfonamide] reads no less than 50%; that for `Cc1ccccc1Nc1c(C(=O)N2CCC(c3ccc(F)cc3)CC2)cnc(S(N)(=O)=O)c1Cl` [Compound 33, 3-chloro-5-[4-(4-fluorophenyl)piperidine-1-carbonyl]-4-(o-tolylamino)pyridine-2-sulfonamide], no less than 50%. In the case of `NS(=O)(=O)c1ncc(C(=O)N2CCC(c3ccc(F)cc3)CC2)c(Nc2cc(F)c(F)cc2F)c1Cl` [Compound 34, 3-chloro-5-[4-(4-fluorophenyl)piperidine-1-carbonyl]-4-(2,4,5-trifluorophenylamino)pyridine-2-sulfonamide], the inhibition at up to 1 µM is no less than 50%. Consider `CNC(=O)C1COCCN1S(=O)(=O)c1ncc(C(=O)N2CCC(c3ccc(F)cc3)CC2)c(Nc2ccc(F)cc2C)c1Cl` (centres unmarked) [Compound 35, 4-{3-chloro-4-(4-fluoro-2-methylphenylamino)-5-[4-(4-fluorophenyl)piperidine-1-carbonyl]pyridin-2-ylsulfonyl}-N-methylmorpholine-3-carboxamide], for which the inhibition at up to 1 µM was no less than 50%. The result for `COc1ccc(NS(=O)(=O)c2ncc(C(=O)N3CCC(c4ccc(F)cc4)CC3)c(Nc3ccc(F)cc3C)c2Cl)cc1` [Compound 38, 3-chloro-4-(4-fluoro-2-methylphenylamino)-5-[4-(4-fluorophenyl)piperidine-1-carbonyl]-N-(4-methoxyphenyl)pyridine-2-sulfonamide] reads no less than 50%; that for `Cc1cc(F)ccc1Nc1c(C(=O)N2CCC(c3ccc(F)cc3)CC2)cnc(S(=O)(=O)Nc2ccn(C)n2)c1Cl` [Compound 39, 3-chloro-4-(4-fluoro-2-methylphenylamino)-5-[4-(4-fluorophenyl)piperidine-1-carbonyl]-N-(1-methyl-1H-pyrazol-3-yl)pyridine-2-sulfonamide], no less than 50%. The result for `Cc1cc(NS(=O)(=O)c2ncc(C(=O)N3CCC(c4ccc(F)cc4)CC3)c(Nc3ccc(F)cc3C)c2Cl)no1` [Compound 40, 3-chloro-4-(4-fluoro-2-methylphenylamino)-5-[4-(4-fluorophenyl)piperidine-1-carbonyl]-N-(5-methylisoxazol-3-yl)pyridine-2-sulfonamide] reads no less than 50%; that for `Cc1cc(NS(=O)(=O)c2ncc(C(=O)N3CCC(c4ccc(F)cc4)CC3)c(Nc3ccc(F)cc3C)c2Cl)on1` [Compound 41, 3-chloro-4-(4-fluoro-2-methylphenylamino)-5-[4-(4-fluorophenyl)piperidine-1-carbonyl]-N-(3-methylisoxazol-5-yl)pyridine-2-sulfonamide], no less than 50%; that for `Cc1cc(F)ccc1Nc1c(C(=O)N2CCC(c3ccc(F)cc3)CC2)cnc(S(=O)(=O)Nc2cc(C(C)(C)C)on2)c1Cl` [Compound 42, N-(5-tert-butylisoxazol-3-yl)-3-chloro-4-(4-fluoro-2-methylphenylamino)-5-[4-(4-fluorophenyl)piperidine-1-carbonyl]pyridine-2-sulfonamide], no less than 50%. The result for `CCNC(=O)NS(=O)(=O)c1ncc(C(=O)N2CCC(c3ccc(F)cc3)CC2)c(Nc2ccc(F)cc2C)c1Cl` [Compound 43, 3-chloro-N-(ethylcarbamoyl)-4-(4-fluoro-2-methylphenylamino)-5-[4-(4-fluorophenyl)piperidine-1-carbonyl]pyridine-2-sulfonamide] reads no less than 50%; that for `NS(=O)(=O)c1ncc(C(=O)N2CCC(c3ccc(F)cc3)CC2)c(NCc2ccccc2)c1Cl` [Compound 44, 4-(benzylamino)-3-chloro-5-[4-(4-fluorophenyl)piperidine-1-carbonyl]pyridine-2-sulfonamide], no less than 50%; that for `NS(=O)(=O)c1ncc(C(=O)N2CCC(c3ccc(F)cc3)CC2)c(NC2CCCCC2)c1Cl` [Compound 45, 3-chloro-4-(cyclohexylamino)-5-[4-(4-fluorophenyl)piperidine-1-carbonyl]pyridine-2-sulfonamide], no less than 50%.

For `Cc1cc(Cl)ccc1Nc1cc(S(N)(=O)=O)ncc1C(=O)N1CCC2(CC1)OCc1ccccc12` [Compound 46, 4-(4-chloro-2-methylphenylamino)-5-(3H-spiro[isobenzofuran-1,4′-piperidine]-1′-ylcarbonyl]pyridine-2-sulfonamide], the inhibition at up to 1 µM was no less than 50%. The result for `Cc1cc(F)ccc1Nc1cc(S(N)(=O)=O)ncc1C(=O)N1CCC(c2ccccc2)CC1` [Compound 48, 4-(4-fluoro-2-methylphenylamino)-5-(4-phenylpiperidine-1-carbonyl)pyridine-2-sulfonamide] reads no less than 50%.
